For this assay, the target named is ROCK2 (human) (UniProt O75116). Nature of the assay: Inhibition of ROCK2 Kinase Activity.
Sequence of ROCK2 (human) (O75116 whole entry, looked up): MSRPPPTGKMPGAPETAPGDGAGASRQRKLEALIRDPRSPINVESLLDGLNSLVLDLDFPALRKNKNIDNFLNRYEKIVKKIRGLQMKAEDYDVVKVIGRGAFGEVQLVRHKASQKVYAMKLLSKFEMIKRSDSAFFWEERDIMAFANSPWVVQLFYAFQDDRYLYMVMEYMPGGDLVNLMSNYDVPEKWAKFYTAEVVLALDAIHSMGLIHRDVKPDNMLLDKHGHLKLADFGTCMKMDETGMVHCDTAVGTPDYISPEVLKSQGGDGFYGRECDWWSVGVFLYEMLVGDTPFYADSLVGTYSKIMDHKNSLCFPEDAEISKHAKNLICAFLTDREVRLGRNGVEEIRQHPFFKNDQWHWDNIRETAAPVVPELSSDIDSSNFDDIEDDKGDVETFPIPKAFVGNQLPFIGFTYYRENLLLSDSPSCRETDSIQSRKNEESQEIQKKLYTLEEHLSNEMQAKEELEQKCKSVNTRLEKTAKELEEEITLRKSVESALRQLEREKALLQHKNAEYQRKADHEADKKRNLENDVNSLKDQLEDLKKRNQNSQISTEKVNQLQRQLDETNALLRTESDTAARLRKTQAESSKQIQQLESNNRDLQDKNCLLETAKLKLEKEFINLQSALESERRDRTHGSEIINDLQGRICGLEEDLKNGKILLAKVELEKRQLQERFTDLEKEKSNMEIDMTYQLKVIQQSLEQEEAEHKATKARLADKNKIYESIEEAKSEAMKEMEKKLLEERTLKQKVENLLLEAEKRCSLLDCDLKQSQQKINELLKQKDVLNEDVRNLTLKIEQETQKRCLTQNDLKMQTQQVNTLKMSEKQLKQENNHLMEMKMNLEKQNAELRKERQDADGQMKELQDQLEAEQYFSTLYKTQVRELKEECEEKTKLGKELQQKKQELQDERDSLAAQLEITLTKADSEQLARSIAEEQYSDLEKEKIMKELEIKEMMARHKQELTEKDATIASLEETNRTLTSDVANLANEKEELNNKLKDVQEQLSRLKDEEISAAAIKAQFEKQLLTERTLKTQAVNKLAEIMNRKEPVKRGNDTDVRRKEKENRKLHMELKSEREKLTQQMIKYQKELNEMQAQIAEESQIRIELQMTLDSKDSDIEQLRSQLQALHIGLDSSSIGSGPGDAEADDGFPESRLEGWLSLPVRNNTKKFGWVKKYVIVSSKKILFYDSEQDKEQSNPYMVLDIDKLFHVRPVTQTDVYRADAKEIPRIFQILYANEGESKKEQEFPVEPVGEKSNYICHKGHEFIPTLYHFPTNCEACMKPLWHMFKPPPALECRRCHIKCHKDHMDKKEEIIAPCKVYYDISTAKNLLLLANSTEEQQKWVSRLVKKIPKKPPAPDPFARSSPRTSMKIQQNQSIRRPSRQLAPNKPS
By IC50 is commonly meant the point on the concentration scale where inhibition reaches its midpoint. The low end stands for higher potency, the high end for lower potency. Compound `CCCCC(C)CCC(=O)NCC(N)c1ccc(C(=O)Nc2ccncc2)cc1` (stereo not given) came in with an IC50 of 50 to 500 nM.
For `CN(CC(N)c1ccc(C(=O)Nc2ccncc2)cc1)C(=O)Cc1ccccc1F` (stereo not given), the IC50 lay within 500 to 5000 nM.
In the case of `CN(CC(N)c1ccc(C(=O)Nc2ccncc2)cc1)C(=O)C1(c2ccccc2)CC1` (stereo not given) it was 500 to 5000 nM; in that of `NC(CC(=O)Nc1ccccc1)c1ccc(C(=O)Nc2ccncc2)cc1` (stereo not given), 50 to 500 nM; in that of `NC(CNC(=O)c1ccc2ccccc2n1)c1ccc(C(=O)Nc2ccncc2)cc1` (stereo not given), 50 to 500 nM.
In the case of `CC(C)(C(=O)NC[C@@H](N)c1ccc(C(=O)Nc2ccncc2)cc1)c1ccc(Cl)cc1` it was 50 to 500 nM; in that of `NC(CNC(=O)c1cccc(Br)c1)c1ccc(C(=O)Nc2ccncc2)cc1` (stereo not given), 500 to 5000 nM; in that of `CC(C)(C(=O)NCC(N)c1ccc(C(=O)Nc2ccncc2)cc1)c1ccc(F)cc1F` (stereo not given), 50 to 500 nM.
Turning to `NC(CNC(=S)Nc1ccc(OC(F)(F)F)cc1)c1ccc(C(=O)Nc2ccncc2)cc1` (stereo not given), the half-inhibitory concentration (IC50) lay in the range of 500 to 5000 nM.
The result for `NC(CC(=O)NCCc1cccs1)c1ccc(C(=O)Nc2ccncc2)cc1` (stereo not given) reads 50 to 500 nM; that for `NC(CC(=O)NCCc1ccccc1F)c1ccc(C(=O)Nc2ccncc2)cc1` (stereo not given), 50 to 500 nM.
The result for `Cc1nc(-c2ccccc2)sc1C(=O)NCC(N)c1ccc(C(=O)Nc2ccncc2)cc1` (stereo not given) reads 500 to 5000 nM; that for `CC(C)(C)ON=Cc1ccc(C(=O)NCC(N)c2ccc(C(=O)Nc3ccncc3)cc2)cc1` (stereo not given), 500 to 5000 nM.
In the case of `NC(CNC(=S)Nc1ccc(Cl)cc1)c1ccc(C(=O)Nc2ccncc2)cc1` (stereo not given) it was 50 to 500 nM; in that of `NC(c1ccc(C(=O)Nc2ccncc2)cc1)C1CCCN1C(=O)Cc1c[nH]c2ccccc12` (stereo not given), 500 to 5000 nM; in that of `NC(c1ccc(C(=O)Nc2ccncc2)cc1)C1CCCN1C(=O)C1(c2ccc(F)c(F)c2)CCC1` (stereo not given), 500 to 5000 nM.
`NC(c1ccc(C(=O)Nc2ccncc2)cc1)C1CCCN1C(=O)Cc1csc(-c2ccccc2)n1` (stereo not given) came in with an IC50 of 500 to 5000 nM.
For the compound `NC(CC(=O)NCc1ccncc1)c1ccc(C(=O)Nc2ccncc2)cc1` (stereo not given), the IC50 lay within 50 to 500 nM.
The result for `COc1ccc(CCNC(=O)CC(N)c2ccc(C(=O)Nc3ccncc3)cc2)cc1` (stereo not given) reads 50 to 500 nM; that for `NC(CNC(=O)c1ccc2ncccc2c1)c1ccc(C(=O)Nc2ccncc2)cc1` (stereo not given), 500 to 5000 nM; that for `NC(c1ccc(C(=O)Nc2ccncc2)cc1)C1CCCN1C(=O)C1(c2ccc(Cl)cc2F)CC1` (stereo not given), 500 to 5000 nM.
The compound `NC(CNC(=O)CC1CCCC1)c1ccc(C(=O)Nc2ccncc2)cc1` (stereo not given) registered an IC50 of 500 to 5000 nM.
The result for `NC(CC(=O)NCCc1cccc(Cl)c1)c1ccc(C(=O)Nc2ccncc2)cc1` (stereo not given) reads 50 to 500 nM; that for `N#Cc1ccc(C(=O)NCC(N)c2ccc(C(=O)Nc3ccncc3)cc2)cc1` (stereo not given), 500 to 5000 nM; that for `CCOC(=O)CCNC(=O)NCC(N)c1ccc(C(=O)Nc2ccncc2)cc1` (stereo not given), 500 to 5000 nM.
On to `NC(CNC(=O)c1cnnc2ccccc12)c1ccc(C(=O)Nc2ccncc2)cc1` (stereo not given), for which the IC50 was in the range of 500 to 5000 nM.
For `CN(CC(N)c1ccc(C(=O)Nc2ccncc2)cc1)C(=O)Cc1cccc(Br)c1` (stereo not given), the IC50 was 500 to 5000 nM.
In the case of `NC(CNC(=O)Cc1csc(-c2ccccc2)n1)c1ccc(C(=O)Nc2ccncc2)cc1` (stereo not given) it was 50 to 500 nM.
In the case of `NC(c1ccc(C(=O)Nc2ccncc2)cc1)C1CCCN1C(=O)Cc1cc(F)ccc1F` (stereo not given) it was 500 to 5000 nM; in that of `CN(CC(N)c1ccc(C(=O)Nc2ccncc2)cc1)C(=O)C1Cc2ccccc21` (stereo not given), 50 to 500 nM.
On to `NC(CC(=O)NCCc1ccccc1)c1ccc(C(=O)Nc2ccncc2)cc1` (stereo not given), for which the IC50 was 50 to 500 nM.
In the case of `N[C@@H](CC(=O)NCc1ccc(F)cc1)c1ccc(C(=O)Nc2ccncc2)cc1` it was 50 to 500 nM.
The result for `CN(CC(N)c1ccc(C(=O)Nc2ccncc2)cc1)C(=O)Cc1ccc(-c2ccccc2)cc1` (stereo not given) reads 500 to 5000 nM.
The result for `NC(CNC(=O)C1CCCCC1)c1ccc(C(=O)Nc2ccncc2)cc1` (stereo not given) reads 500 to 5000 nM.
In turn, `N[C@@H](CNC(=O)C1(c2ccc(F)cc2)CCCC1)c1ccc(C(=O)Nc2ccncc2)cc1` returned an IC50 of 500 to 5000 nM.
In turn, `COc1cccc(CCNC(=O)CC(N)c2ccc(C(=O)Nc3ccncc3)cc2)c1` (stereo not given) registered a half-maximal inhibitory concentration (IC50) of 50 to 500 nM.
The result for `COc1cc(OC)cc(C(=O)NCC(N)c2ccc(C(=O)Nc3ccncc3)cc2)c1` (stereo not given) reads 500 to 5000 nM; that for `NC(CNC(=O)C1(c2ccc(Cl)cc2)CC1)c1ccc(C(=O)Nc2ccncc2)cc1` (stereo not given), 50 to 500 nM.
The result for `NC(c1ccc(C(=O)Nc2ccncc2)cc1)C1CCCN1C(=O)Cc1cccc(Cl)c1F` (stereo not given) reads 500 to 5000 nM; that for `NC(CNC(=O)c1ccc2cc[nH]c2c1)c1ccc(C(=O)Nc2ccncc2)cc1` (stereo not given), 500 to 5000 nM.
The result for `NC(CNC(=O)c1cccs1)c1ccc(C(=O)Nc2ccncc2)cc1` (stereo not given) reads 50 to 500 nM; that for `CCC(C)C(=O)NCC(N)c1ccc(C(=O)Nc2ccncc2)cc1` (stereo not given), 500 to 5000 nM.
On to `NC(c1ccc(C(=O)Nc2ccncc2)cc1)C1CCCN1C(=O)Cc1ccc(Cl)cc1Cl` (stereo not given), for which the IC50 was 500 to 5000 nM.
`CN(CC(N)c1ccc(C(=O)Nc2ccncc2)cc1)C(=O)Cc1ccc(C(F)(F)F)cc1` (stereo not given): the IC50 fell in the range of 500 to 5000 nM.
`CC(C)(C)NC(=O)NCC(N)c1ccc(C(=O)Nc2ccncc2)cc1` (stereo not given) displayed an IC50 of 500 to 5000 nM.

For the origin of these results see the Kinase Knowledgebase extract (Sharma et al. 2016).
